In EP0217372A2, “Polyoxygenated labdane derivatives, process for their preparation and their use as medicaments” (HOECHST AKTIENGESELLSCHAFT, priority 1985, dated 1987):
In brackets after ≈: the same amount, converted by molar mass. Structures can show the parent of a compound that is named as a salt. Where two headings read alike, the source gives them in different places.

Tests used:
[1] = test system: Isoliertes Meerschweinchenherz; test: Isolated guinea pig heart (Langendorff method); design: species or system Meerschweinchen; settings: Cavia porcellus; for activation at 0.01 mg: Dosis 10 µg injected into the aorta; for activation at 0.03 mg: Dosis 30 µg injected into the aorta
Text: 1. Isoliertes Meerschweinchenherz (Langendorff-Methode)
Es wird ein Meerschweinchen männlichen oder weiblichen Geschlechts mit einem Gewicht zwischen 300 und 400 g getötet und das Herz mit einem kleinen Teil der Aorta entnommen. Das Herz wird umgehend in einen Perfusionsapparat gebracht, in dem die Aorta auf der Glaskanüle fixiert wird. Die aus oxygenierter Ringerlösung bestehende Perfusionslösung wird bei konstantem Druck aus dem Behälter zugeführt, der durch aus dem Thermostat zirkulierendes Wasser auf 37°C angewärmt wird. Die zu untersuchenden Verbindungen der Erfindung werden zur Herstellung einer Lösung mit bekannter Konzentration unter Verwendung stöchiometrischer 0,1 n HC1 bzw. deren Salze direkt in Wasser gelöst. Die erhaltene Lösung wird durch eine Polyäthylenkanüle direkt in die Aorta injiziert und die Wirkungen auf die Kontraktionskraft, Herzfrequenz und Koronardurchblutung auf einem 3-Kanal-Physioscribe-Rekorder aufgezeichnet. Die prozentuale Zu- oder Abnahme der inotropen Wirkung wird nach dem intialen Ausgangswert berechnet.

[2] = test system: Meerschweinchen-Vorhof; test: Electrically stimulated left atrium, contractile force; settings: contractile force of electrically stimulated left atrium, recorded 7 to 10 min
Text: 2. Elektrisch stimulierter linker Vorhof
Es wird ein Meerschweinchen männlichen oder weiblichen Geschlechts mit einem Gewicht von 400 g getötet, das Herz entnommen und bei Zimmertemperatur in Ringerlösung eingebracht. Dann wird der linke Vorhof isoliert, an einem Organhalter befestigt und das Präparat in ein Organbad mit Ringerlösung von Zimmertemperatur gebracht. In das Organbad wird ein lebhafter Strom eines Gemisches von Kohlendioxid und Sauerstoff (95 % 02 und 5 % C02) geleitet. Dann wird der linke Vorhof elektrisch stimuliert. Anschließend wird aus einer der erfindungsgemäßen Verbindungen oder ih- rem Salz gegebenenfalls unter Verwendung von stöchiometrischer wäßriger 0,1 n HC1-Lösung eine wäßrige Lösung bekannter Konzentrationen hergestellt.
Diese Lösung wird dem Bad zugesetzt und die Kontraktionskraft des Vorhofes 7 bis 10 Minuten lang auf einem 4-Kanal-Kohden-Rekorder registriert. Die Wirkung wird aus den ermittelten Daten als EC50 berechnet angegeben.

[3] = test system: Narkotisierter Hund; test: In vivo test in the anaesthetised dog (left ventricular dp/dt max); design: species or system Beagle-Hunde; settings: injected into the femoral vein, pentobarbital anaesthesia; for ED50: Canis lupus familiaris, iv
Description: 3. In vivo-Tests am narkotisierten Hund
Beagle-Hunde beiderlei Geschlechts mit einem Gewicht zwischen 10 und 15 kg werden mit Na-Pentobarbitol (35 mg/kg, i.v.) narkotisiert. Nach Einführen eines Endotrachealtubus werden die Femoralarterie und -vene mit einer Kanüle zur Messung des Blutdrucks bzw. zur Verabreichung von Medikamenten versehen. Der Druck des linken Ventrikels wird mit Hilfe eines Millar-Katheters gemessen und dp/dt max wird berechnet mit einem Hugo-Sachs-Differentiometer. Die Herzfrequenz wird mit Hilfe eines Kardiotachometers aus ECG-Signalen bestimmt. Alle kontinuierlich gemessenen Parameter werden mit einem Hellige-Sechs-Kanal-Recorder aufgezeichnet.
Die zu untersuchenden erfindungsgemäßen Verbindungen werden in destilliertem Wasser gelöst. In allen Experimenten werden 1%ige Lösungen verwendet. Die Lösungen werden in die Femoralvene injiziert und die Dosis-Wirkung-Relation berechnet.

[4] = test system: Augeninnendruck (IOP); test: Intraocular pressure in the conscious rabbit; format: in vivo, Kaninchen; settings: for Senkung des IOP: percent decrease from baseline; for Dauer: duration of the IOP-lowering effect
Text: Messung des Augeninnendruckes am wachen Kaninchen
Für die Untersuchung wird ein männliches oder weibliches Kaninchen mit einem Gewicht von 2 bis 3 k^g ausgewählt. Der Augeninnendruck (IOP) wird nach vorheriger Hornhautanästhesie mit 2 % Novocain-Lösung mit einem Schioetz-Tonometer gemessen. Zur Herstellung einer 2 %igen wäßrigen Lösung wird eine Verbindung der Formel I unter Verwendung von stöchiometrischer wäßriger 0,1 n HCI-Lösung oder ein Salz einer solchen Verbindung direkt in Wasser gelöst. […] Der IOP wird in Abständen von 0,5, 1, 2, 3, 4 und 5 Stunden gemessen. Die prozentuale Abnahme des IOP wird anhand des Ausgangswertes berechnet.

[5] = test system: systolischer Blutdruck; test: Blood pressure lowering in conscious spontaneously hypertensive rats (tail cuff); format: in vivo, SH-Ratten; settings: 25 mg/kg oral once daily for 5 days; difference from baseline, 2 hours after dosing
Text: Blutdrucksenkung bei wachen hypertonen Ratten
Die blutdrucksenkende Wirkung wird bei wachen Ratten mit spontaner Hyperonie (SH) ermittelt. Eingesetzt werden dazu männliche SH-Ratten (250 - 300 g, 12 - 16 Wochen alt) des Wistar-Okamoto-Stammes aus eigener Züchtung. Vor der Blutdruckmessung werden die Ratten 10 Minuten bei 37'C in einer Wärmekammer aufgewärmt. Der systolische Blutdruck wird bei den wachen Ratten mittels Schwanzmanschetten-Methode gemessen, wobei ein piezoelektrischer Kristall zur Anzeige des Druckpulses, ein aneroides Manometer zur Druckmessung und ein Kardioskop (BPL-India) zur Anzeige des Verschwindens und/oder Auftretens des Druckpulses verwendet wird.
Die zu testenden erfindungsgemäßen Verbindungen werden unter Verwendung von stöchiometrischer 0,1 n HCl-Lösung bzw. die Salze direkt in Wasser gelöst und in dieser Form den SH-Ratten 5 Tage lang einmal täglich in einer Dosierung von 25 mg/kg oral verabreicht. Eine Gruppe dient als Kontrolle und erhält das Vehikel. Der systolische Blutdruck wird vor der ersten Verabreichung des Medikamentes und 2 Stunden danach registriert. Eine Senkung des systolischen Blutdruckes ist die Differenz zwischen dem Blutdruck nach der Behandlung und dem Ausgangswert.

[6] = read-out: % Zunahme der Chronotropen Wirkung
[7] = read-out: % Zunahme der Koronardurchblutung
[8] = relative to initial baseline, read-out: % Zunahme der Inotropen Wirkung
[9] = Dosis 2 %, 100 µl instilled into one eye

Compound: C=C[C@@]1(C)CC(=O)[C@]2(O)[C@@]3(C)[C@@H](O)CCC(C)(C)[C@@H]3[C@H](OC(=O)CN3CCCCC3)[C@H](O)[C@@]2(C)O1
- activation at 0.01 mg [1, 6]: 27%
- activation at 0.01 mg [1, 7]: 40%
- activation at 0.01 mg [1, 8]: 32%
- EC50 [2]: 2.3 µg/mL (≈ 4.66 µM)

Compound: C=C[C@@]1(C)CC(=O)[C@]2(O)[C@@]3(C)[C@@H](O)CCC(C)(C)[C@@H]3[C@H](OC(=O)C(C)N3CCOCC3)[C@H](O)[C@@]2(C)O1 (stereo partly shown)
- activation at 0.01 mg [1, 6]: 20%
- activation at 0.01 mg [1, 7]: 11%
- activation at 0.01 mg [1, 8]: 45%
- EC50 [2]: 4.7 µg/mL (≈ 9.22 µM)

Compound: C=C[C@@]1(C)CC(=O)[C@]2(O)[C@@]3(C)[C@@H](O)CCC(C)(C)[C@@H]3[C@H](O)[C@H](OC(=O)CN3CCCCC3)[C@@]2(C)O1
- activation at 0.01 mg [1, 6]: 1%
- activation at 0.01 mg [1, 7]: 31%
- activation at 0.01 mg [1, 8]: 18%
- EC50 [2]: 22 µg/mL (≈ 44.6 µM)

Compound: C=C[C@@]1(C)CC(=O)[C@]2(O)[C@@]3(C)[C@@H](O)CCC(C)(C)[C@@H]3[C@H](O)[C@H](OC(=O)CCCN3CCOCC3)[C@@]2(C)O1
- EC50 [2]: 3 µg/mL (≈ 5.73 µM)

Compound: C=C[C@@]1(C)CC(=O)[C@]2(O)[C@@]3(C)[C@@H](O)CCC(C)(C)[C@@H]3[C@H](O)[C@H](OC(=O)CN3CCOCC3)[C@@]2(C)O1
- activation at 0.01 mg [1, 6]: 35%
- activation at 0.01 mg [1, 7]: 100%
- activation at 0.01 mg [1, 8]: 37%
- EC50 [2]: 0.35 µg/mL (≈ 0.706 µM)

Compound: C=C[C@@]1(C)CC(=O)[C@]2(O)[C@@]3(C)[C@@H](O)CCC(C)(C)[C@@H]3[C@H](OC(=O)CN3CCOCC3)[C@H](O)[C@@]2(C)O1
- activation at 0.03 mg [1, 6]: 34%
- activation at 0.03 mg [1, 7]: 35%
- activation at 0.03 mg [1, 8]: 23%
- EC50 [2]: 0.5 µg/mL (≈ 1.01 µM)
- ED50 [3]: 0.11 mg/kg

Compound: C=C[C@@]1(C)CC(=O)[C@]2(O)[C@@]3(C)[C@@H](O)CCC(C)(C)[C@@H]3[C@H](OC(=O)CN3CCC(C)CC3)[C@H](O)[C@@]2(C)O1
- EC50 [2]: 2.6 µg/mL (≈ 5.12 µM)
- ED50 [3]: 0.39 mg/kg

Compound: C=C[C@@]1(C)CC(=O)[C@]2(O)[C@@]3(C)[C@@H](O)CCC(C)(C)[C@@H]3[C@H](O)[C@H](OC(=O)CN3CCCC3)[C@@]2(C)O1
- activation at 0.01 mg [1, 6]: 24%
- activation at 0.01 mg [1, 7]: 57%
- activation at 0.01 mg [1, 8]: 38%
- EC50 [2]: 1.8 µg/mL (≈ 3.75 µM)
- ED50 [3]: 0.5 mg/kg

Compound: C=C[C@@]1(C)CC(=O)[C@]2(O)[C@@]3(C)[C@@H](O)CCC(C)(C)[C@@H]3[C@H](OC(=O)CN3CCC(NC(=O)c4ccccc4)CC3)[C@H](O)[C@@]2(C)O1
- EC50 [2]: 1.2 µg/mL (≈ 1.96 µM)

Compound: C=C[C@@]1(C)CC(=O)[C@]2(O)[C@@]3(C)[C@@H](O)CCC(C)(C)[C@@H]3[C@H](OC(=O)CN3CCCC3)[C@H](O)[C@@]2(C)O1
- EC50 [2]: 3 µg/mL (≈ 6.26 µM)

Compound: C=C[C@@]1(C)CC(=O)[C@]2(O)[C@@]3(C)[C@@H](O)CCC(C)(C)[C@@H]3[C@H](O)[C@H](OC(=O)CN3CCSCC3)[C@@]2(C)O1
- EC50 [2]: 30 µg/mL (≈ 58.6 µM)

Compound: C=C[C@@]1(C)CC(=O)[C@]2(O)[C@@]3(C)[C@@H](O)CCC(C)(C)[C@@H]3[C@H](OC(=O)CN3CCSCC3)[C@H](O)[C@@]2(C)O1
- EC50 [2]: 1.5 µg/mL (≈ 2.93 µM)
- ED50 [3]: > 3 mg/kg

Compound: C=C[C@@]1(C)CC(=O)[C@]2(O)[C@@]3(C)[C@@H](O)CCC(C)(C)[C@@H]3[C@H](O)[C@H](OC(=O)CN3CCCC(C)C3)[C@@]2(C)O1 (stereo partly shown)
- EC50 [2]: 30 µg/mL (≈ 59.1 µM)

Compound: C=C[C@@]1(C)CC(=O)[C@]2(O)[C@@]3(C)[C@@H](O)CCC(C)(C)[C@@H]3[C@H](O)[C@H](OC(=O)CCN3C(=O)c4ccccc4C3=O)[C@@]2(C)O1
- EC50 [2]: > 3 µg/mL

Compound: C=CC1(C)CC(=O)C2(O)C(C)(O1)C(O)C(OC(=O)CN1CCCC(C)C1)C1C(C)(C)CCC(O)C12C (stereo not shown)
- EC50 [2]: 30 µg/mL (≈ 59.1 µM)

Compound: C=CC1(C)CC(=O)C2(O)C(C)(O1)C(O)C(OC(=O)CN1CCCCCC1)C1C(C)(C)CCC(O)C12C (stereo not shown)
- EC50 [2]: 1.9 µg/mL (≈ 3.74 µM)

Compound: C=CC1(C)CC(=O)C2(O)C(C)(O1)C(OC(=O)CCCCN1CCCCC1)C(O)C1C(C)(C)CCC(O)C12C (stereo not shown)
- EC50 [2]: 30 µg/mL (≈ 56 µM)

Compound: C=CC1(C)CC(=O)C2(O)C(C)(O1)C(OC(=O)C(C)n1cnc3c1c(=O)n(C)c(=O)n3C)C(O)C1C(C)(C)CCC(O)C12C (stereo not shown)
- EC50 [2]: 0.9 µg/mL (≈ 1.49 µM)

Compound: C=CC1(C)CC(=O)C2(O)C(C)(O1)C(OC(=O)Cn1nnc3ccccc31)C(O)C1C(C)(C)CCC(O)C12C (stereo not shown)
- EC50 [2]: > 30 µg/mL

Compound: C=CC1(C)CC(=O)C2(O)C(C)(O1)C(O)C(OC(=O)CN(C)C1CCCCC1)C1C(C)(C)CCC(O)C12C (stereo not shown)
- Senkung des IOP [4, 9]: 27.5%
- Dauer ([4]; Dosis 2 %): 6 Std.

Compound: C=CC1(C)CC(=O)C2(O)C(C)(O1)C(O)C(O)C1C(C)(C)CCC(OC(=O)CN3CCCCC3)C12C (stereo not shown)
- Senkung des IOP [4, 9]: 18%
- Dauer ([4]; Dosis 2 %): 2 Std.

Compound: C=CC1(C)CC(=O)C2(O)C(C)(O1)C(OC(=O)Cn1cnc3c1c(=O)n(C)c(=O)n3C)C(O)C1C(C)(C)CCC(O)C12C (stereo not shown)
- Senkung des IOP [4, 9]: 21%
- Dauer ([4]; Dosis 2 %): > 6 Std.

Compound: C=CC1(C)CC(=O)C2(O)C(C)(O1)C(O)C(OC(=O)CN1CCCCC1)C1C(C)(C)CCC(O)C12C (stereo not shown)
- Senkung des systolischen Blutdruckes [5]: 14

Compound: C=CC1(C)CC(=O)C2(O)C(C)(O1)C(OC(=O)CN1CCCCC1)C(O)C1C(C)(C)CCC(O)C12C (stereo not shown)
- Senkung des systolischen Blutdruckes [5]: 35

Compound: C=CC1(C)CC(=O)C2(O)C(C)(O1)C(OC(=O)C(C)N1CCSCC1)C(O)C1C(C)(C)CCC(OC(=O)C(C)N3CCSCC3)C12C (stereo not drawn) [6β-9α-Dihydroxy, 1α,7β-di(α'-thiomorpholinopropionyloxy)-8,13-epoxy-labd-14-en-one-dihydrochlorid-trihydrat]
- Senkung des IOP ([4]; Dosis 1 %): 19%
- Dauer ([4]; Dosis 1 %): 6 Std.

Compound: C=C[C@@]1(C)CC(=O)[C@]2(O)[C@@]3(C)[C@@H](O)CCC(C)(C)[C@@H]3[C@H](O)[C@H](OC(=O)C(C)N3CCOCC3)[C@@]2(C)O1 (stereo partly shown) [the 1st table, row 7]
- activation at 0.01 mg [1, 6]: 20%
- activation at 0.01 mg [1, 7]: -5%
- activation at 0.01 mg [1, 8]: 18%
- Meerschweinchen-Vorhof EC50 [2]: 10 µg/mL
- ED50 [3]: 0.04 mg/kg

Compound: C=C[C@@]1(C)CC(=O)[C@]2(O)[C@@]3(C)[C@@H](O)CCC(C)(C)[C@@H]3[C@H](O)[C@H](OC(=O)C(C)N3CCOCC3)[C@@]2(C)O1 (stereo partly shown) [the 2nd table, row 3]
- activation at 0.03 mg [1, 6]: 32%
- activation at 0.03 mg [1, 7]: 44%
- activation at 0.03 mg [1, 8]: 20%
- Meerschweinchen-Vorhof EC50 [2]: 0,266 µg/ml
- Narkotisierter Hund dp/dt max ED50 [3]: 0,04 mg/kg

Compound: C=CC1(C)CC(=O)C2(O)C(C)(O1)C(O)C(OC(=O)CCCCN1CCCCC1)C1C(C)(C)CCC(O)C12C (stereo not shown) [the 4th table, row 5]
- EC50 [2]: 30 µg/mL (≈ 56 µM)

Compound: C=CC1(C)CC(=O)C2(O)C(C)(O1)C(O)C(OC(=O)CCCCN1CCCCC1)C1C(C)(C)CCC(O)C12C (stereo not shown) [the 5th table, row 7]
- Senkung des IOP ([4]; Dosis 1 %): 23%
- Dauer ([4]; Dosis 1 %): 6 Std.
